One assay has as its system baboons. The conditions noted are these: ref Kaminski and Griffiths 1994; cited from earlier work.
Assay [1] has as its system rats. To be noted: ref Glennon et al. 1987; cited from earlier work.
The subject of the next assay is DAT, SERT, and NET. It counts as biochemical, rat. To be noted: from DAT, SERT EC50 and NET screening data.
A further assay deals with DAT (Rattus norvegicus, UniProt P23977). Kind of assay: DAT-mediated [3H]DA release assay in rat brain synaptosomes. It counts as biochemical.
Sequence of DAT (P23977 whole entry): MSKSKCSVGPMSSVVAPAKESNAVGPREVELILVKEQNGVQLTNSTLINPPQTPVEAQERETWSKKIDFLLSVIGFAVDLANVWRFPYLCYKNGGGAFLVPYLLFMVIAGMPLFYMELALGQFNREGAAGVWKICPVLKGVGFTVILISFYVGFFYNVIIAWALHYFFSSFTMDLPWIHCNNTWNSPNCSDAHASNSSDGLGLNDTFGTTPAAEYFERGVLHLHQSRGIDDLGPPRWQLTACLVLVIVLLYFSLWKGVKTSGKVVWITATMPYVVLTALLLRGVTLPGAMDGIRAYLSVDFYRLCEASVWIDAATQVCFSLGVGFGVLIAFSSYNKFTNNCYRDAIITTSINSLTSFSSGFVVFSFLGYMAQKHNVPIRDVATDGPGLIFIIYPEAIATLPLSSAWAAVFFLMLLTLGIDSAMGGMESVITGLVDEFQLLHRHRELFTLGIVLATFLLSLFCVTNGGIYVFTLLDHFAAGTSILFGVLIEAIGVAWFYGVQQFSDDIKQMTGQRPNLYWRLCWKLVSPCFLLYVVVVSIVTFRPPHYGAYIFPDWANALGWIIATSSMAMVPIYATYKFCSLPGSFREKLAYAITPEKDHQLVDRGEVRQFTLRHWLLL
For a further assay, the target named is NET (Rattus norvegicus, UniProt Q63380). The assay can be described thus: NET-mediated [3H]MPP+ release screen in rat brain synaptosomes. It counts as biochemical. The conditions noted are these: based on % release at 10 µM screening data.
Sequence of NET (Q63380 1-617): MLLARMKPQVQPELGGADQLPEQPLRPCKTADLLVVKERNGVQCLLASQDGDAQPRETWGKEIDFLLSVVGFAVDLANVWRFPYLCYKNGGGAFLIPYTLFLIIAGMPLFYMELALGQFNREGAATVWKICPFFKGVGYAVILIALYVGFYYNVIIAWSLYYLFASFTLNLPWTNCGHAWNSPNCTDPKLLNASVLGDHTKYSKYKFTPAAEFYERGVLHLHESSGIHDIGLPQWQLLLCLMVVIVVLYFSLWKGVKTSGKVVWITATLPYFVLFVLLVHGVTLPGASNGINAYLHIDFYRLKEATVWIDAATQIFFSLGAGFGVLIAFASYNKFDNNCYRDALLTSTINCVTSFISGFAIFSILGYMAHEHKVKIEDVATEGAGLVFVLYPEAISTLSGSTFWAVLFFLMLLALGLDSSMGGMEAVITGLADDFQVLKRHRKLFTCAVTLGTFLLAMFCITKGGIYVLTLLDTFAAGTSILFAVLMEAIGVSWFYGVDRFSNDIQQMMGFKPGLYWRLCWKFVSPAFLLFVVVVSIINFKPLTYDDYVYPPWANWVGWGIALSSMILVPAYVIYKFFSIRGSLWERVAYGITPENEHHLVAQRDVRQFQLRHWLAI
Another assay concerns the target SERT (Rattus norvegicus, UniProt P31652). Kind of assay: SERT-mediated [3H]5-HT release assay in rat brain synaptosomes. It counts as biochemical. To be noted: relative to methcathinone 1.
Assay [2] relates to rats. The conditions noted are these: ref Gatch et al. 2015; cited from earlier work.
A further assay relates to transporters. To be noted: CF3 analogs; ref Cozzi et al. 2013; cited from earlier work.

We go through 17 compounds from paper PMC6475490 (Psychopharmacology, 2018).

Structures are written as SMILES. Entries after “also recorded” stand apart in the source; their conditions may differ. Some results are limits rather than exact numbers.

Sequence of SERT (P31652 whole entry): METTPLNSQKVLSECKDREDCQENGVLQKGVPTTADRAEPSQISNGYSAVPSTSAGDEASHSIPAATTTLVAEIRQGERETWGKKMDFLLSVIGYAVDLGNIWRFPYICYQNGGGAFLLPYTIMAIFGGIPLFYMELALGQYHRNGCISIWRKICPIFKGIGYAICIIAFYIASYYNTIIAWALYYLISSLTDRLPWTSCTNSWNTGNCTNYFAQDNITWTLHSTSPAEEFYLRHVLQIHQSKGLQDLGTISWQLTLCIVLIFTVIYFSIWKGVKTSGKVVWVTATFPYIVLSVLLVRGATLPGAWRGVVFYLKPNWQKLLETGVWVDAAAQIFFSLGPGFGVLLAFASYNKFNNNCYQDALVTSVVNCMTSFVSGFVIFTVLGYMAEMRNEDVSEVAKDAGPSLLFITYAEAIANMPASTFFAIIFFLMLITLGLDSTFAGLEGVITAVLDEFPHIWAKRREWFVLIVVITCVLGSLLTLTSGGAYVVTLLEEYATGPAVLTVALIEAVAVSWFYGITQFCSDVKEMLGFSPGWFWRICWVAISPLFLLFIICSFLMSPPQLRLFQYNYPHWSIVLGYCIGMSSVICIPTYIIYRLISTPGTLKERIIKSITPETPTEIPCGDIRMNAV

`CNC(C)C(=O)c1ccccc1` (centres unmarked) [Compound 1, methcathinone]: the self-administration entry with baboons is “dose-dependently maintain self-administration”. Further, the “substitution for amphetamine in drug discrimination” value in the assay with rats [1] was “substitute for amphetamine”. The “transporter selectivity profile in words” value in the assay on DAT, SERT, and NET is “DAT selective”.
Take `Cl.NCC(=O)c1ccccc1` [Compound 6, phenacylamine, reference compound]: in the assay on DAT, SERT, and NET, the “transporter selectivity profile in words” value was “DAT selective”. Further, the “fold less potent at DA release (DAT) compared to 1” value (“fold less potent at DA release” for short) on DAT (relative to methcathinone 1) is 4.2 fold.
For `CNC(C)C(=O)c1ccccc1F` (centres unmarked) [Compound 7], the “transporter selectivity profile in words” value in the assay with DAT, SERT, and NET is on record as “DAT selective”.
As for `CNC(C)C(=O)c1ccccc1C(F)(F)F` (centres unmarked) [Compound 8], at NET, the “NET / NE release activity in words” value was “appears active as a NE releaser”. In the assay on DAT, SERT, and NET, the “transporter selectivity profile in words” value is reported as “selective NET releaser; also recorded: selective NE releasers”.
Consider `CNC(C)C(=O)c1ccccc1OC(F)(F)F` (centres unmarked) [Compound 9], for which the “NET / NE release activity in words” value at NET is reported as “weak”.
`CNC(C)C(=O)c1ccccc1C` (centres unmarked) [Compound 10]: on SERT, the “fold more potent at 5-HT release (SERT) compared to 1” value (“fold more potent at 5-HT release” below) was found to be 12 fold. Moreover, in the assay on DAT, SERT, and NET, the “transporter selectivity profile in words” value is recorded as “DAT selective”. In addition, the “fold less potent at DA release” value on DAT (relative to methcathinone 1) is recorded as 2 fold.
Turning to `CNC(C)C(=O)c1cccc(Br)c1` (centres unmarked) [Compound 11], the “fold more potent at 5-HT release” value on SERT was found to be 31 fold. Besides, at DAT (relative to methcathinone 1), the “fold more potent at DA release (DAT) compared to 1” value is on record as ~2 fold.
For the compound `CNC(C)C(=O)c1cccc(F)c1` (centres unmarked) [Compound 13, 3-fluoromethcathinone], the “fold more potent at 5-HT release” value on SERT was found to be 2.9 fold. In addition, the “transporter selectivity profile in words” value with DAT, SERT, and NET is listed as “highly potent, DAT selective compound”. The locomotor stimulation result in the assay on rats [2] is “induce locomotor stimulation”.
As to `CNC(C)C(=O)c1cccc(C(F)(F)F)c1` (centres unmarked) [Compound 14], the “fold more potent at 5-HT release” value at SERT was determined as 14 fold. Moreover, the “transporter selectivity profile in words” value with DAT, SERT, and NET was “SERT/NET selective releasers; also recorded: selective 5-HT releasers”. The “fold less potent at DA release” value on DAT (relative to methcathinone 1) came out at 26 fold.
As for `CNC(C)C(=O)c1cccc(C)c1` (centres unmarked) [Compound 16], at SERT, the “fold more potent at 5-HT release” value is given as 14.6 fold.
The same measure, in the same setting: next, `CNC(C)C(=O)c1ccc(Br)cc1` (centres unmarked) [Compound 19]: 100 fold.
In the case of `CNC(C)C(=O)c1ccc(F)cc1` (centres unmarked) [Compound 21], the “fold more potent at 5-HT release” value at SERT came to 2.9 fold. Further, at DAT (relative to methcathinone 1), the “fold less potent at DA release” value was 2.4 fold.
`CNC(C)C(=O)c1ccc(C(F)(F)F)cc1` (centres unmarked) [Compound 22]: in the assay with transporters, the “relative selectivity (DAT selectivity)” value is < 0.04. Besides, on SERT, the “fold more potent at 5-HT release” value stood at 15 fold. Further, the “transporter selectivity profile in words” value with DAT, SERT, and NET is “most serotonergic; also recorded: low DAT selectivity”. The EC50 on DAT (read-out: DA release EC50, bound stated) is > 4 µM.
For `CNC(C)C(=O)c1ccc(C)cc1` (centres unmarked) [Compound 24, mephedrone, reference compound], at SERT, the “fold more potent at 5-HT release” value is on record as 36 fold.
The same measure, in the same setting: next, `CNC(C)C(=O)c1cccc2ccccc12` (centres unmarked) [Compound 26, 1-naphthylmethcathinone]: 198 fold.
For the compound `CNC(C)C(=O)c1c[nH]c2ccccc12` (centres unmarked) [Compound 28, 3-indoylmethcathinone], the “NET / NE release activity in words” value at NET is reported as “much weaker than its DAT release potency”. For the same compound, at SERT, the “fold more potent at 5-HT release” value was 103 fold. Besides, the “fold less potent at DA release” value on DAT (relative to methcathinone 1) is recorded as ~2 fold.
With `CNC(C)C(=O)c1ccc(C)c(Cl)c1` (centres unmarked) [Compound 31], the “fold more potent at 5-HT release” value at SERT is recorded as 102 fold. Moreover, the “fold less potent at DA release” value on DAT (relative to methcathinone 1) came out at 2.5 fold.
